Test system: Mycosphaerella graminicola
Test: In vivo test on Mycosphaerella graminicola (wheat leaf spot)
Conditions: Zymoseptoria tritici, wheat plants (Scipion variety), grading 21 to 28 days after contamination, good (at least 70%) or total protection, read-out: protection (% of efficacy)
Description: In vivo Test on Mycosphaerella graminicola (Wheat Leaf Spot)
The active ingredients tested are prepared by homogenisation in a mixture of acetone/tween/DMSO, and then diluted with water to obtain the desired active material concentration.
Wheat plants (Scipion variety), sown on a 50/50 peat soil-pozzolana substrate in starter cups and grown at 12° C., are treated at the 1-leaf stage (10 cm tall) by spraying with the active ingredient prepared as described above.
Plants, used as controls, are treated with the mixture of acetone/tween/DMSO/water not containing the active material.
After 24 hours, the plants are contaminated by spraying them with an aqueous suspension of Mycosphaerella graminicola spores (500 000 spores per ml). The spores are collected from a 7-day-old culture. The contaminated wheat plants are incubated for 72 hours at 18° C. and at 100% relative humidity, and then for 21 to 28 days at 90% relative humidity.
Grading (% of efficacy) is carried out 21 to 28 days after the contamination, in comparison with the control plants.

Row | SMILES | pest or weed control at 500 ppm [%]
1 | COc1nn(C)cc1C(=O)N(C1CC1)S(=O)(=O)c1ccc(Oc2cccc(C(F)(F)F)c2)cc1Cl [Compound 508] | ≥ 70
2 | Cn1cc(C(=O)N(C2CC2)S(=O)(=O)c2ccc(Oc3ccccc3)cc2)c(C(F)F)n1 [Compound 249] | ≥ 70
3 | CCc1nn(C)c(F)c1C(=O)N(C1CC1)S(=O)(=O)c1ccc(Oc2cccc(C)c2)cc1 [Compound 578] | ≥ 70
4 | COc1nn(C)cc1C(=O)N(C1CC1)S(=O)(=O)c1ccc(Oc2cccc(C(F)(F)F)c2F)cc1Cl [Compound 519] | ≥ 70
5 | Cc1cccc(Oc2ccc(S(=O)(=O)N(C(=O)c3c(C)nn(C)c3F)C3CC3)cc2)c1 [Compound 583] | ≥ 70
6 | Cc1nc(C(=O)N(C2CC2)S(=O)(=O)c2ccc(Oc3ccccc3)cc2)c(C)o1 [Compound 45] | ≥ 70
7 | CCOc1nn(C)cc1C(=O)N(C1CC1C)S(=O)(=O)c1ccc(Oc2ccccc2)cc1 (stereo not drawn) [Compound 675] | ≥ 70

Test system: Puccinia recondita
Test: In vivo test on Puccinia recondita f. sp. tritici (wheat brown rust)
Conditions: 240 h, wheat plants (Scipion variety), grading 10 days after contamination, good (at least 70%) or total protection
Description: In vivo Test on Puccinia reconditef. Sp. tritici (Wheat Brown Rust)
The active ingredients tested are prepared by homogenisation in a mixture of acetone/tween/DMSO, then diluted with water to obtain the desired active material concentration. Wheat plants (Scipion variety) in starter cups, sown on 50/50 peat soil-pozzolana substrate and grown at 12° C., are treated at the 1-leaf stage (10 cm tall) by spraying with the active ingredient prepared as described above. Plants, used as controls, are treated with the mixture of acetone/tween/DMSO/water not containing the active material.
After 24 hours, the plants are contaminated by spraying the leaves with an aqueous suspension of Puccinia recondita spores (100,000 spores per ml). The spores are collected from a 10-day-old contaminated wheat and are suspended in water containing 2.5 ml/of tween 80 10%. The contaminated wheat plants are incubated for 24 hours at 20° C. and at 100% relative humidity, and then for 10 days at 20° C. and at 70% relative humidity. Grading is carried out 10 days after the contamination, in comparison with the control plants.

Row | SMILES | pest or weed control at 500 ppm [%]
8 | CCOc1nn(C)cc1C(=O)N(C1CC1)S(=O)(=O)c1ccc(OC2=CC(OC(F)(F)F)=CCC2)c(O)c1 [Compound 554] | ≥ 70
9 | CCOc1nn(C)cc1C(=O)N(C1CC1)S(=O)(=O)c1ccc(Oc2ccc(Br)c(O)c2)c(Cl)c1 [Compound 558] | ≥ 70
10 | CCCOc1nn(C)cc1C(=O)N(C1CC1)S(=O)(=O)c1ccc(Oc2cccc(C(F)(F)F)c2)cc1 [Compound 318] | ≥ 70
11 | CCOc1nn(C)cc1C(=O)N(C1CC1)S(=O)(=O)c1ccc(Oc2ccc(F)c(O)c2)c(O)c1 [Compound 548] | ≥ 70
12 | COc1nn(C)cc1C(=O)N(C1CC1)S(=O)(=O)c1ccc(Oc2ccc(Cl)c(Cl)c2)c(Cl)c1 [Compound 513] | ≥ 70
13 | CCOc1nn(C)cc1C(=O)N(C1CC1)S(=O)(=O)c1ccc(Oc2ccc(O)cc2O)c(O)c1 [Compound 555] | ≥ 70
14 | CCOc1nn(C)cc1C(=O)N(C1CC1)S(=O)(=O)c1ccc(Oc2cccc(Br)c2)c(O)c1 [Compound 551] | ≥ 70
15 | CCCOc1nn(C)cc1C(=O)N(C1CC1)S(=O)(=O)c1ccc(Oc2ccc(Br)cc2)cc1 [Compound 328] | ≥ 70
16 | CCOc1nn(C)cc1C(=O)N(C1CC1)S(=O)(=O)c1ccc(Oc2ccc(O)cc2)c(O)c1 [Compound 545] | ≥ 70
17 | CCc1nn(C)c(F)c1C(=O)N(C1CC1)S(=O)(=O)c1ccc(F)cc1Br [Compound 380] | ≥ 70
18 | CCCOc1nn(C)cc1C(=O)N(C1CC1)S(=O)(=O)c1ccc(Oc2ccccc2)cc1 [Compound 281] | ≥ 70
19 | Cn1nc(C(F)(F)F)c(C(=O)N(C2CC2)S(=O)(=O)c2ccc(F)c(F)c2F)c1F [Compound 366] | ≥ 70
20 | CCc1nn(C)c(F)c1C(=O)N(C1CC1)S(=O)(=O)c1cnc(O)c(Br)c1 [Compound 448] | ≥ 70
21 | CCCCOc1ccc(S(=O)(=O)N(C(=O)c2cn(C)nc2OCCC)C2CC2)cc1 [Compound 309] | ≥ 70
22 | CCCOc1nn(C)cc1C(=O)N(C1CC1)S(=O)(=O)c1ccc(Oc2ccc(C(F)(F)F)cc2)cc1 [Compound 320] | ≥ 70
23 | CCOc1nn(C)cc1C(=O)N(C1CC1)S(=O)(=O)c1ccc(Oc2ccccc2)c(O)c1 [Compound 533] | ≥ 70
24 | CCOc1nn(C)cc1C(=O)N(C1CC1)S(=O)(=O)c1ccc(Oc2ccc(Cl)c(Cl)c2)c(Cl)c1 [Compound 557] | ≥ 70

Test system: not listed separately
Test: logP by HPLC on reversed-phase column (C 18), EEC Directive 79/B31 Annex V.A8, methods A and B
Type: physicochemical
Conditions: reversed-phase HPLC column (C 18), HPLC reversed-phase C 18, method A: 43° C., 0.1% aqueous phosphoric acid, acetonitrile, linear gradient 10% to 90% acetonitrile
Description: Calibration was carried out using unbranched alkan-2-ones (having 3 to 16 carbon atoms) with known logP values (determination of the logP values by the retention times using linear interpolation between two successive alkanones).

Row | chromatographic logP | SMILES
25 | 2.25 | Cc1nn(C)c(F)c1C(=O)N(C1CC1)S(=O)(=O)c1c(F)cccc1F [Compound 217]
26 | 3.64 | Cc1ccsc1C(=O)N(C1CC1)S(=O)(=O)c1cccc(O)c1 [Compound 13]
27 | 3.46 | Cc1nc(C(=O)N(C2CC2)S(=O)(=O)c2ccc(O)c(O)c2)cs1 [Compound 70]
28 | 3.1 | Cc1ncc(C(=O)N(C2CC2)S(=O)(=O)c2ccc(C(F)(F)F)cc2)s1 [Compound 61]
29 | 4.07 | O=C(c1cc(Br)c(Br)s1)N(C1CC1)S(=O)(=O)c1ccccc1O [Compound 15]

Same assay, conditions: reversed-phase HPLC column (C 18), HPLC reversed-phase C 18, method B: 40° C., 0.1% aqueous formic acid and acetonitrile, linear gradient 10% to 90% acetonitrile

Row | SMILES | chromatographic logP
30 | CCc1nn(C)c(F)c1C(=O)N(C1CC1)S(=O)(=O)c1ccc(F)cc1Br [Compound 380] | 2.9
31 | Cn1nc(C(F)(F)F)c(C(=O)N(C2CC2)S(=O)(=O)c2cc(O)c(O)cc2O)c1F [Compound 361] | 4
32 | CCc1nn(C)c(F)c1C(=O)N(C1CC1)S(=O)(=O)c1ccc(Br)cc1O [Compound 385] | 3.4
33 | Cn1nc(-c2ccccc2)c(C(=O)N(C2CC2)S(=O)(=O)c2cccc(O)c2O)c1F [Compound 101] | 3.7
34 | CC(C)c1nn(C)c(F)c1C(=O)N(C1CC1)S(=O)(=O)c1ccc(C(F)(F)F)cc1O [Compound 97] | 4
35 | Cc1nc(C(F)(F)F)c(C(=O)N(C2CC2)S(=O)(=O)c2ccc(Oc3ccccc3)cc2)s1 [Compound 66] | 4.4
36 | Cn1nc(C(F)F)c(C(=O)N(C2CC2)S(=O)(=O)c2ccccc2O)c1F [Compound 103] | 2.8
37 | COc1cscc1C(=O)N(C1CC1)S(=O)(=O)c1ccc(Oc2ccccc2)cc1 [Compound 26] | 3.9

Continued, values first:

Row | chromatographic logP | SMILES
38 | 4.9 | CCCOc1nn(C)cc1C(=O)N(C1CC1)S(=O)(=O)c1ccc(Oc2ccc(O)c(C(F)(F)F)c2)cc1Br [Compound 302]
39 | 4 | CCCOc1nn(C)cc1C(=O)N(C1CC1)S(=O)(=O)c1ccc(Oc2ccc(OC)cc2)cc1Br [Compound 289]
40 | 4.9 | CCCOc1nn(C)cc1C(=O)N(C1CC1)S(=O)(=O)c1ccc(Oc2ccc(O)cc2Cl)cc1Br [Compound 301]
41 | 4.9 | Cc1cc(C(=O)N(C2CC2)S(=O)(=O)c2ccc(Oc3ccc(Br)cc3)cc2)c(C)o1 [Compound 7]

Same assay, conditions: reversed-phase HPLC column (C 18), LogP method A: HPLC reversed-phase C 18, 43° C., 0.1% aqueous phosphoric acid / acetonitrile, linear gradient 10% to 90% acetonitrile

Row | chromatographic logP | SMILES
42 | 3 | Cc1nn(C)c(C)c1C(=O)N(C1CC1)S(=O)(=O)c1ccc(C(F)(F)F)cc1 [Compound 403]
43 | 2.91 | O=C(c1cccnc1Cl)N(C1CC1)S(=O)(=O)c1cccc(O)c1 [Compound 643]
44 | 3.21 | Cc1nn(C)c(C)c1C(=O)N(C1CC1)S(=O)(=O)c1ccc(O)c(O)c1 [Compound 412]
45 | 3.41 | Cc1noc(C)c1C(=O)N(C1CC1)S(=O)(=O)c1ccc(O)cc1O [Compound 592]
46 | 3.57 | Cc1cc(C)c(C(=O)N(C2CC2)S(=O)(=O)c2cccc(O)c2O)c(O)n1 [Compound 650]
47 | 2.91 | O=C(c1cccnc1)N(C1CC1)S(=O)(=O)c1ccc(O)c(O)c1 [Compound 639]
48 | 2.01 | CC(C)c1c(C(=O)N(C2CC2)S(=O)(=O)c2ccc(O)cc2O)sc(=O)n1C1CC1 [Compound 635]
49 | 3.46 | Cc1noc(C)c1C(=O)N(C1CC1)S(=O)(=O)c1ccc(C(F)(F)F)cc1 [Compound 588]
50 | 4.08 | Cc1c(C(=O)N(C2CC2)S(=O)(=O)c2ccc(C(F)(F)F)cc2)sc(=O)n1Cc1ccccc1 [Compound 614]

Same assay, conditions: reversed-phase HPLC column (C 18), LogP method B: HPLC reversed-phase C 18, 40° C., 0.1% aqueous formic acid / acetonitrile, linear gradient 10% to 90% acetonitrile

Row | SMILES | chromatographic logP
51 | CCc1nn(C)c(F)c1C(=O)N(C1CC1)S(=O)(=O)c1cnc(O)c(Br)c1 [Compound 448] | 3.5
52 | Cc1oncc1C(=O)N(C1CC1)S(=O)(=O)c1ccc(O)c(O)c1O [Compound 604] | 2.6
53 | Cc1nocc1C(=O)N(C1CC1)S(=O)(=O)c1ccc(O)c(O)c1O [Compound 600] | 3.6

Next, values leading:

Row | chromatographic logP | SMILES
54 | 4.5 | CCOc1nn(C)cc1C(=O)N(C1CC1)S(=O)(=O)c1ccc(OC2=CC(OC(F)(F)F)=CCC2)c(O)c1 [Compound 554]
55 | 4.9 | CCOc1nn(C)cc1C(=O)N(C1CC1)S(=O)(=O)c1ccc(Oc2ccc(Br)c(O)c2)c(Cl)c1 [Compound 558]
56 | 4.4 | CCOc1nn(C)cc1C(=O)N(C1CC1)S(=O)(=O)c1ccc(Oc2ccc(F)c(O)c2)c(O)c1 [Compound 548]
57 | 4.7 | CCOc1nn(C)cc1C(=O)N(C1CC1)S(=O)(=O)c1ccc(Oc2ccc(O)cc2O)c(O)c1 [Compound 555]
58 | 4.5 | CCOc1nn(C)cc1C(=O)N(C1CC1)S(=O)(=O)c1ccc(Oc2cccc(Br)c2)c(O)c1 [Compound 551]
59 | 4.3 | CCOc1nn(C)cc1C(=O)N(C1CC1)S(=O)(=O)c1ccc(Oc2ccc(O)cc2)c(O)c1 [Compound 545]
60 | 3.8 | COc1nn(C)cc1C(=O)N(C1CC1)S(=O)(=O)c1ccc(Oc2ccc(Cl)cc2)cc1Br [Compound 469]
61 | 3.7 | COc1nn(C)cc1C(=O)N(C1CC1)S(=O)(=O)c1ccc(Oc2cccc(O)c2)cc1Br [Compound 468]
62 | 2.7 | COc1nn(C)cc1C(=O)N(C1CC1)S(=O)(=O)c1c(O)cc(Cl)cc1O [Compound 461]
63 | 4.2 | CCOc1nn(C)cc1C(=O)N(C1CC1)S(=O)(=O)c1ccc(Oc2ccc(Br)cc2)cc1Br [Compound 541]
64 | 3.9 | CCOc1nn(C)cc1C(=O)N(C1CC1)S(=O)(=O)c1ccc(Oc2ccccc2)c(O)c1 [Compound 533]
65 | 4.8 | CCOc1nn(C)cc1C(=O)N(C1CC1)S(=O)(=O)c1ccc(Oc2ccc(Cl)c(Cl)c2)c(Cl)c1 [Compound 557]
66 | 4.2 | Cc1nocc1C(=O)N(C1CC1)S(=O)(=O)c1ccc(Oc2ccc(Br)cc2)cc1 [Compound 602]
